Data reported in ChEMBL document CHEMBL4825739, “Cannabinoid Receptor Agonists for the Potential Treatment of Pain, Neurological Disorders, Fibrotic Diseases, Obesity, and Many More” (ACS Med Chem Lett, 2021).
pEC50: −log10 of the molar value.

What was measured:
Format in all cases: functional, cell-based
Cannabinoid receptor 1 [1] = molecular target: T1, Cannabinoid receptor 1 (Homo sapiens, UniProt P21554); experiment: Agonist activity at human CB1 receptor expressed in CHO-K1 cells assessed as […] incubated for 20 mins measured after 60 mins addition of cAMP detect reagent by HTRF analysis
Cannabinoid receptor 2 [2] = molecular target: T2, Cannabinoid receptor 2 (Homo sapiens, UniProt P34972); experiment: Agonist activity at human CB2 receptor expressed in CHO-K1 cells assessed as […] incubated for 20 mins measured after 60 mins addition of cAMP detect reagent by HTRF analysis
Cannabinoid receptor 1 [3] = molecular target: T1, Cannabinoid receptor 1; experiment: Agonist activity at human CB1 receptor expressed in CHO-K1 cells assessed as maximum efficacy incubated for 20 mins measured after 60 mins addition of cAMP detect reagent by HTRF analysis relative to control; conditions: filed as agonist
Cannabinoid receptor 2 [4] = molecular target: T2, Cannabinoid receptor 2; experiment: Agonist activity at human CB2 receptor expressed in CHO-K1 cells assessed as maximum efficacy incubated for 20 mins measured after 60 mins addition of cAMP detect reagent by HTRF analysis relative to control; conditions: filed as agonist, time 80.0 min

T2 sequence (P34972 whole entry): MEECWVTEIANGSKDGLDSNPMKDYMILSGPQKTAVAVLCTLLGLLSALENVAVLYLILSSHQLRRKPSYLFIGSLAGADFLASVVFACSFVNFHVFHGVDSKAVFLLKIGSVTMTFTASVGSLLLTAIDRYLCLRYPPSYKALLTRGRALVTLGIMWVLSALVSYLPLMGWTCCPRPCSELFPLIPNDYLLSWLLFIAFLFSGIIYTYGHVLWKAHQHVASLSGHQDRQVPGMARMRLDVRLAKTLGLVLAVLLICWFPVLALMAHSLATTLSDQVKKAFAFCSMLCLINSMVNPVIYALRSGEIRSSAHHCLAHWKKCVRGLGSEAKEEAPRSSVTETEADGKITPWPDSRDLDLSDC
T1 sequence (P21554 whole entry): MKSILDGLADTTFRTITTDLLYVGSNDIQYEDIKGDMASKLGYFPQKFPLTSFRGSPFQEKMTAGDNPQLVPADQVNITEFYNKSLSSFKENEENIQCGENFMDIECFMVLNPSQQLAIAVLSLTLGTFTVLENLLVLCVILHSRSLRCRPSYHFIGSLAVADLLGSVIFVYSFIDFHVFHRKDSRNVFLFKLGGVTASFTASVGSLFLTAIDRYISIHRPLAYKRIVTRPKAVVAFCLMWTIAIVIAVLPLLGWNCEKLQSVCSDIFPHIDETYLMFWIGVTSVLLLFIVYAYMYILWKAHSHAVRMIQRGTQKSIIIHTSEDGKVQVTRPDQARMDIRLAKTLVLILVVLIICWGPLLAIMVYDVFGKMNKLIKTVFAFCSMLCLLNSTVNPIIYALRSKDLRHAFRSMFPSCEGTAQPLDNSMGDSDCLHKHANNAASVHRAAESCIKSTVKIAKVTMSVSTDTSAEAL

SMILES	pEC50 (Cannabinoid receptor 1 [1])	pEC50 (Cannabinoid receptor 2 [2])	Emax (Cannabinoid receptor 1 [3]) [%]	Emax (Cannabinoid receptor 2 [4]) [%]
O=C(NC12CC(C1)C2)c1nn(-c2c[n+]([O-])ccn2)c2c1CC1CCC2O1 (stereo not given)	10.30	5.75	100	91
O=C(NC12CC3CC(CC1C3)C2)c1nn(-c2cnccn2)c2c1CC1CCC2O1 (stereo not given)	10.70	7.78	100	111
CC(C)(C)NC(=O)c1c2c(nn1-c1c[n+]([O-])ccn1)CC1CCC2O1 (stereo not given)	5.57		80.3	< 50
CC(C)(C)NC(=O)c1c2c(nn1-c1ccc(F)cc1F)C1CCC(C2)O1 (stereo not given)	5.53		72.8	< 50
O=C(NC12CC3CC(CC1C3)C2)c1nn(-c2ccc(F)cc2F)c2c1CC1CCC2O1 (stereo not given)	10.10	9.15	99.1	98
CCC(C)(C)c1noc(-c2nn(-c3cnccn3)c3c2CC2CCC3O2)n1 (stereo not given)	10.40		99.8	< 50
O=C(NC12CCC(CC1)CC2)c1nn(-c2c[n+]([O-])ccn2)c2c1CC1CCC2O1 (stereo not given)	10.70	7.31	99.7	96.5
CC(C)(C)[C@@H](CO)NC(=O)c1nn(-c2cnccn2)c2c1C[C@H]1CCC2O1 (single isomer, unassigned)	10.05	6.37	100	111
CC(C)(C)c1nnc(-c2nn(-c3c[n+]([O-])ccn3)c3c2CC2CCC3O2)s1 (stereo not given)	10.22	6.89	99	94.9
CC(C)(C)NC(=O)c1c2c(nn1-c1cnccn1)CC1CCC2O1 (stereo not given)	5.78		85.8	< 50
CC(C)(C)[C@@H](CO)NC(=O)c1nn(-c2cnccn2)c2c1C[C@@H]1CC[C@H]2O1	9.25		100	< 50
O=C(NC1(C(F)(F)F)CCC1)c1nn(-c2cnccn2)c2c1CC1CCC2O1 (stereo not given)	10.40	6.24	100	90.3
CC(C)(C)NC(=O)c1nn(-c2ccc(F)cc2F)c2c1CC1CCC2O1 (stereo not given)	8.92	6.97	95.6	99
CC(C)(C)NC(=O)c1c2c(nn1-c1c[n+]([O-])ccn1)C1CCC(C2)O1 (stereo not given)	5.10		66.3	< 50
